Data set [1] deals with carotid artery shear stress model. As to the kind of experiment: Carotid artery shear stress model, amount of thrombus. Format: in vivo, Sprague-Dawley rats. The note with it: rat, 8 mg/kg oral, twice a day for 3 days after operation. How it is done:
Vehicle (0.5% methylcellulose), clopidogrel (8 mg/kg), aspirin (50 mg/kg) or a candidate substance was orally administered to male Sprague-Dawley rats (250 to 300 g). 2 hours after administration, the rats were anesthetized by ketamine/rompun (ketamine/xylazine) cocktail 0.1 ml/100 g. Except for the normal control group, the right cervical skin of the experimental animals was incised to expose the common carotid artery. A surgical tube with a length of 1 mm and an inside diameter of 0.58 mm was inserted into the exposed carotid artery and tied with a single thread. The exposed site and the operation site were treated with an anti-adhesion agent, and then sutured for the animals to recover. After the surgery, vehicle, clopidogrel, aspirin or a candidate substance was orally administered to the rats twice a day for 3 days. On the fourth day, 2 hours after the final administration, urethane (100 mg/300 μl/100 g) was administered intraperitoneally to the rats to induce anesthesia, and the operation site was opened to separate a total of 1 cm of the blood vessel, 5 mm above and 5 mm below the surgical tube. The separated blood vessel was perfused with 0.2 ml of 0.9% saline at 0.3 ml/min to remove the remaining blood, and then maintained in 1 ml of protein lysis buffer (NaOH 2 g, Na2CO3 0.1 g in 500 ml D.W). After collected, the blood vessel thrombus was double-boiled in boiling water together with the protein lysis buffer. 200 μl of the reaction solution (10 ml bicinchoninic acid solution+200 μl 4% aqueous solution of copper sulfate) was added to 10 μl of the heated thrombus, and the mixture was reacted at 37° C. for 30 minutes and quantified with an ELISA reader (562 nm).

For data set [2], the system named is ADP-induced platelet aggregation, Human PRP. As to the kind of experiment: ADP-induced platelet aggregation in human PRP (lumi-aggregometer). Format: cell-based. How it is done: To investigate whether the candidate substance has inhibition selectivity for shear-stress-induced platelet aggregation, which is by a physical stimulus, […] experiment was conducted by activating platelets with physiological agonists—i.e., thrombin, collagen and ADP—to study the inhibitory effect of the candidate substance.
Human PRP (598.8 μl) was treated with 1.2 μl of the candidate substance per concentration (25, 100, 250 μM) and reacted at 37° C. for 3 minutes using a thermomixer. Then, PRP (495 μl) was put in the aggregometer cuvette and preincubated for 1 minute, followed by treatment with platelet aggregation-inducing reagent, thrombin (0.6-0.8 U/ml), collagen (2-5 μg/ml), or ADP (adenosine diphosphate, 15-20 μM) at the minimum concentration causing maximum aggregation. The degree of aggregation of the platelets was measured by a turbidity change using a lumi-aggregometer (Chrono-Log Co., USA). The turbidity of the PRP was considered as 0%, and the turbidity of the PPP was considered as 100%. During the measurement, the reaction mixture was continuously stirred at 1,000 rpm with a silicone-coated magnetic stir bar.

Another data set concerns Sprague-Dawley rats. As to the kind of experiment: Bleeding side effect (tail bleeding time) after single oral administration. Format: in vivo. As to conditions: rat, tail cut 1 hour after administration. As for the experimental part:
Male Sprague-Dawley rats (250 to 300 g) were fasted overnight and then were orally administered with the candidate substances at each concentration. After 1 hour, the rats were anesthetized by intraperitoneal injection of urethane (1.25 g/kg). The 3 mm portion of the tail tip of the rats was cut and carefully wiped every 30 seconds. Bleeding time was measured in […] until no more blood was drawn, and when the bleeding lasted longer than 30 minutes, the bleeding time was recorded as 30 minutes.

Another data set concerns ICR mouse. As to conditions: male, in vivo, po, 15 mg/kg, 7 days.

Method for ICR mouse: One hour after the last administration, the mice were anesthetized by breathing, and the 4 mm portion from the tail tip of the mice was cut. Then, the tail tip of the mice was immersed in a transparent 15-ml tube containing the pre-prepared 37° C. saline. The time when blood was not spread any more and the bleeding stopped was measured.

On to `COC(=O)[C@H](c1ccccc1Cl)N1CCc2sccc2C1` [Clopidogrel, clopidogrel, reference compound], for which, in data set [1], the “Amount of thrombus (mg, Mean ± SEM)” value was determined as 0.067 ± 0.004 mg. Also, the “Degree of platelet aggregation (%, Mean ± SEM)” value in data set [2] (ADP 15-20 μM, compound 40 μM) was 18.3 ± 3.4%. In addition, in data set [2] (positive control, 40 μM), the “platelet aggregation compared with the group treated with ADP only” value is on record as “platelet aggregation was inhibited”. In addition, the “Bleeding time” value in the data set on Sprague-Dawley rats (2.5 μM (so in the source)) stood at 14.3 ± 1.6 min. For the same compound, the “Bleeding time” value with Sprague-Dawley rats (25 μM (so in the source)) amounted to 26.8 ± 1.6 min. In the data set with ICR mouse, the “Bleeding time” value came out at 35.4 ± 2.9 min; the “Bleeding time (min)” value was “exceeded 35 min”; the “bleeding time delayed, times compared with the control group” value is “about 22 times”.
